Experimental data from US8716293B2, “Macrocyclic integrase inhibitors” (Janssen R&D Ireland, priority 2010, dated 2014).

Legend:
HIV-1 (IIIB) = experiment: cell-based HIV-1 replication assay in MT4-LTR-EGFP cells, wild type; conditions: Human immunodeficiency virus 1, 72 h, 3 days, EGFP fluorescence
Text: (§1) MT4-LTR-enhanced green fluorescent protein (EGFP) cells were obtained by transfecting MT4 cells with a selectable construct encompassing the coding sequences for the HIV LTR as a promoter for the expression of EGFP and subsequent selection of permanently transfected cells. MT4-cytomegalovirus (CMV)-EGFP cells were obtained by selection for permanently transformed MT4 cells with a CMV-EGFP reporter gene. Cell lines were maintained in RPMI 1640 medium supplemented with 10% heat-inactivated fetal calf serum, 2 mM L-glutamine, 0.1% NaHCO3, and antibiotics (0.02% gentamicin and 0.8% G418) and incubated in a humidified incubator with a 5% CO2 atmosphere at 37° C.
The inhibitory antiviral activity of different compounds was determined in a cell-based HIV-1 replication assay. MT4-LTR-EGFP cells (150,000 cells/ml) were infected with HIV-1 (IIIB or SDM strains Q148R, N155H, or G140S-Q148H; multiplicity of infection [MOI] of 0.0025) in the presence or absence of inhibitor. After 3 days of incubation, the inhibition of HIV replication was quantified by measuring EGFP fluorescence, and expressed as the compound concentration required for 50% inhibition of HIV-1 replication in cell culture (EC50). The antiviral activities of the different compounds are reported in Table 4 and expressed as EC50 for the inhibition of wild type HIV (IIIB EC50) and as fold change in activity against the mutant strains (FC-Q148R, FC-N155H, FC-G140S-Q148H) compared to the activity against wild type HIV.

HIV-1 SDM strain Q148R = experiment: cell-based HIV-1 replication assay in MT4-LTR-EGFP cells, Q148R mutant; conditions: fold change in activity against Q148R mutant compared to wild type HIV
Text: as §1
(§2) N155H and Q148R mutant Integrase coding sequences were constructed in the pUC19-5′HXB2D vector (XbaI-SalI fragment of pHXB2D), containing the HIV-1 clone HXB2D IN coding sequence, by using a QuikChange site-directed mutagenesis kit (Stratagene, La Jolla, Calif.) and HPLC-purified primers (Genset Oligos, La Jolla, Calif.). Altered plasmid sequences were confirmed by dideoxyribose sequencing. For generation of site-directed mutant (SDM) virus stocks, MT4 cells were subcultured at a density of 250,000 cells/ml on the day before transfection. Cells were pelleted and resuspended in phosphate-buffered saline at a concentration of 3.1×10^6 cells/ml. A 0.8-ml portion ([…]) was used for each transfection. Transfections were performed with a Bio-Rad Gene Pulser (Bio-Rad, Hercules, Calif.) with 0.4-cm electrode cuvettes (Bio-Rad). Cells were electroporated with 10 μg of SalI-linearized pUC19-3′HXB2D (SalI-XbaI fragment of pHXB2D) and 5 μg of SalI-digested SDM at 250 μF and 300 V, followed by a 30-min incubation at room temperature. Ten ml of fresh culture medium was then added to the suspension of transfected cells, and incubation was performed at 37° C. in a humidified atmosphere with 5% CO2. Cell cultures were monitored for the appearance of cytopathic effect (CPE).
(§3) The inhibitory antiviral activity of different compounds was determined in a cell-based HIV-1 replication assay. MT4-LTR-EGFP cells (150,000 cells/ml) were infected with HIV-1 (IIIB or SDM strains Q148R, N155H, or G140S-Q148H; multiplicity of infection [MOI] of 0.0025) in the presence or absence of inhibitor. After 3 days of incubation, the inhibition of HIV replication was quantified by measuring EGFP fluorescence, and expressed as the compound concentration required for 50% inhibition of HIV-1 replication in cell culture (EC50).

HIV-1 SDM strain N155H = experiment: cell-based HIV-1 replication assay in MT4-LTR-EGFP cells, N155H mutant; conditions: fold change in activity against N155H mutant compared to wild type HIV
Text: as §1, §2, §3

[1] = system: HIV-1 SDM strain G140S-Q148H; experiment: cell-based HIV-1 replication assay in MT4-LTR-EGFP cells, G140S-Q148H mutant; conditions: fold change in activity against G140S-Q148H mutant compared to wild type HIV
Text: as §1, §2, §3

HIV-1 LAI (IIIB) = experiment: antiviral assay in the presence of 50% human serum; type: cell-based; conditions: MT-4-LTR-EGFP cells, 4 days, resazurin cell viability
Description: For the antiviral assay in the presence of 50% human serum, MT-4-LTR-EGFP cells were infected with HIV-1 LAI (IIIB) at a MOI of 0.001 to 0.01 CCID50/cell in RPMI1640 medium. Following 1 h of incubation, cells were washed and plated into a 96-well plate containing serial dilutions of test compound in the presence of 10% fetal calf serum or 50% human serum. After 4 days of incubation, the EC50 in the presence of 50% human serum (EC50/HS) was determined by a cell viability assay using resazurin (as described by Fields, R. D., and M. V. Lancaster (1993) Am. Biotechnol. Lab. 11:48-50).

[2] = pharmacokinetic evaluation in the rat; type: in vivo, male Sprague-Dawley rats; conditions: intravenous bolus 2 mg/kg; for clearance / half-life / Vd: male, Sprague-Dawley, plasma, iv; for clearance / CLp: plasma clearance; for clearance: read-out: CLp; for half-life / t1/2: terminal phase elimination half-life; for Vd: read-out: Vss
Description: For determining the pharmacokinetic properties in rat, each HIV integrase inhibitor was dissolved in PEG400/normal saline (70:30 (v/v)) at a nominal concentration of 1 mg/ml and administered (2 ml/kg) to male Sprague-Dawley rats (n=3 per test compound) as an intravenous bolus via a saphenous vein at a dose level of 2 mg/kg. […] Plasma was obtained by centrifugation and stored at −20° C. prior to analysis. Analysis was performed using liquid chromatography (LC) with tandem mass spectrometric detection (MS/MS) in positive ion mode. Each HIV integrase inhibitor was eluted from a reversed-phase column with a gradient of acetonitrile and water containing 0.1% (v/v) formic acid. At the time of analysis plasma samples (50 p. 1) were thawed and […] with 200 μl of acetonitrile containing 0.1% (v/v) formic acid and centrifuged. Aliquots of the supernatant (100 μl) were diluted with 200 μl of water containing 25% (v/v) methanol and 0.1% (v/v) formic acid and injected via an electrospray interface directly into the Mass Spectrometer. Calibration standards and quality controls were prepared in rat plasma at the same time as the samples and analyzed before and after the samples containing HIV integrase inhibitor. Non-compartmental pharmacokinetic analysis of the plasma concentration-time curves was performed using WinNonLin software to provide estimates of the plasma clearance (CLp), volume of distribution at steady-state (Vss) and terminal phase elimination half-life (t1/2).

[3] = system: cryopreserved hepatocytes from Sprague Dawley rats; experiment: metabolic stability in rat hepatocytes; type: in vitro ADME; conditions: 1 μM, percentage turnover; for Rat (% TO) 15 min: 15 min incubation; for Rat (% TO) 60 min: 60 min incubation
Description: (§4) For determining in vitro metabolic stability, cryopreserved hepatocytes from Sprague Dawley rats and of human subjects (pool of male and female) were obtained from an external supplier (Cellz Direct Inc., Paisly, UK). Tested compounds were dissolved in DMSO and this stock solution was used to spike rat and human hepatocyte cell cultures (10^6 cells/ml) at a final concentration of 1 μM (final percentage of DMSO was 0.02% (v/v)). Incubations were performed for up to 60 min at approximately 37° C. and terminated by the addition of two volumes of DMSO. Samples were then centrifuged and aliquots of the supernatant analyzed using liquid chromatography (LC) with electrospray mass spectrometric detection (MS/MS) to monitor the disappearance of parent compound by single reaction monitoring (SRM) and reverse-phase chromotatography with a gradient of acetonitrile and water containing 0.1% (v/v) formic acid. Based on peak area, the percentage of parent compound remaining after 15 and 60 min incubation was calculated and the results, expressed as percentage turnover (TO) relative to time zero controls.

[4] = system: cryopreserved hepatocytes of human subjects; experiment: metabolic stability in human hepatocytes; type: in vitro ADME; conditions: 1 μM, percentage turnover; for Human (% TO) 15 min: 15 min incubation; for Human (% TO) 60 min: 60 min incubation
Description: as §4

[5] = Human immunodeficiency virus 1, IIIB, 96 h
[6] = 2 mg/kg, volume of distribution at steady-state

Compound: CCN1C[C@H](C)n2c(c(O)c3c(=O)n4nc(c32)N(C)S(=O)(=O)CCCCOc2cc(F)ccc2C4)C1=O [Compound 1]
- EC50 (HIV-1 (IIIB)): 0.92 nM
- FC-Q148R (HIV-1 SDM strain Q148R): 0.7
- FC-N155H (HIV-1 SDM strain N155H): 3.2
- FC-G140S-Q148H [1]: 2.6
- EC50 (HIV-1 LAI (IIIB); [5]): 3 nM
- clearance ([2]; 2 mg/kg): 8 mL/min/kg
- half-life ([2]; 2 mg/kg): 4.8 h
- Vd [2, 6]: 0.8 L/kg
- Rat (% TO) 15 min [3]: 30 % TO
- Rat (% TO) 60 min [3]: 42 % TO
- Human (% TO) 15 min [4]: 16 % TO
- Human (% TO) 60 min [4]: 31 % TO
- melting point: 298.6 to 300.6 °C

Compound: CCN1C[C@H](C)n2c(c(O)c3c(=O)n4nc(c32)C(=O)NCCCCCOc2cc(F)ccc2C4)C1=O [Compound 3]
- EC50 (HIV-1 (IIIB)): 2.35 nM
- FC-Q148R (HIV-1 SDM strain Q148R): 0.9
- FC-N155H (HIV-1 SDM strain N155H): 3.9
- FC-G140S-Q148H [1]: 8.1
- EC50 (HIV-1 LAI (IIIB); [5]): 13 nM
- CLp ([2]; 2 mg/kg): 8 mL/min/kg
- t1/2 ([2]; 2 mg/kg): 7.8 h
- clearance ([2]; 2 mg/kg): 6 mL/min/kg
- half-life ([2]; 2 mg/kg): 4.4 h
- melting point: 128.21 °C

Compound: CCN1C[C@H](C)n2c(c(O)c3c(=O)n4nc(c32)C(=O)NCCCCCOc2cc(F)c(F)cc2C4)C1=O [Compound 4]
- EC50 (HIV-1 (IIIB)): 2.61 nM
- FC-Q148R (HIV-1 SDM strain Q148R): 1.2
- FC-N155H (HIV-1 SDM strain N155H): 6.1
- FC-G140S-Q148H [1]: 10.9
- EC50 (HIV-1 LAI (IIIB); [5]): 10 nM
- melting point: 127.49 to 128.63 °C

Compound: CCN1C[C@H](C)n2c(c(O)c3c(=O)n4nc(c32)N(C)S(=O)(=O)CCCCOCc2cc(F)ccc2C4)C1=O [Compound 48]
- FC-Q148R (HIV-1 SDM strain Q148R): 0.5
- FC-N155H (HIV-1 SDM strain N155H): 4.7
- FC-G140S-Q148H [1]: 1.3
- EC50 (HIV-1 LAI (IIIB)): 4 nM
- CLp [2]: 20 mL/min/kg
- t1/2 [2]: 1.4 h
- Vss ([2]; volume of distribution at steady-state): 0.7 L/kg
- Rat (% TO) 15 min [3]: 65 % TO
- Rat (% TO) 60 min [3]: 86 % TO
- Human (% TO) 15 min [4]: 38 % TO
- Human (% TO) 60 min [4]: 72 % TO

Compound: CCN1C[C@H](C)n2c(c(O)c3c(=O)n(Cc4ccc(F)c(Cl)c4)nc(C(=O)NC)c32)C1=O [Compound 52r, reference compound]
- EC50 (HIV-1 (IIIB)): 3.4 nM
- FC-Q148R (HIV-1 SDM strain Q148R): 1.2
- FC-N155H (HIV-1 SDM strain N155H): 6.8
- FC-G140S-Q148H [1]: 56.9
- EC50 (HIV-1 LAI (IIIB); [5]): 29 nM
- clearance ([2]; 2 mg/kg): 5 mL/min/kg
- half-life ([2]; 2 mg/kg): 1.6 h
- Vd [2, 6]: 0.2 L/kg
- Rat (% TO) 15 min [3]: 38 % TO
- Rat (% TO) 60 min [3]: 76 % TO
- Human (% TO) 15 min [4]: 25 % TO
- Human (% TO) 60 min [4]: 44 % TO

Compound: CCN1C[C@H](C)n2c(c(O)c3c(=O)n(Cc4ccc(F)cc4)nc(N(C)S(C)(=O)=O)c32)C1=O [Compound 53r, reference compound]
- EC50 (HIV-1 (IIIB)): 0.99 nM
- FC-Q148R (HIV-1 SDM strain Q148R): 0.4
- FC-N155H (HIV-1 SDM strain N155H): 4.9
- FC-G140S-Q148H [1]: 2.0
- EC50 (HIV-1 LAI (IIIB); [5]): 3 nM
- clearance ([2]; 2 mg/kg): 75 mL/min/kg
- half-life ([2]; 2 mg/kg): 1.7 h
- Vd [2, 6]: 2.9 L/kg
- Rat (% TO) 15 min [3]: 60 % TO
- Rat (% TO) 60 min [3]: 89 % TO
- Human (% TO) 15 min [4]: 41 % TO
- Human (% TO) 60 min [4]: 84 % TO

Compound: CCN1C[C@@H](C)n2c(c(O)c3c(=O)n(Cc4ccc(F)c(Cl)c4)nc(N4CCN(C)S4(=O)=O)c32)C1=O [Compound 54r, reference compound]
- EC50 (HIV-1 (IIIB)): 2.04 nM
- FC-Q148R (HIV-1 SDM strain Q148R): 0.4
- FC-N155H (HIV-1 SDM strain N155H): 4.4
- FC-G140S-Q148H [1]: 3.1
- EC50 (HIV-1 LAI (IIIB); [5]): 7 nM
- clearance ([2]; 2 mg/kg): 40 mL/min/kg
- half-life ([2]; 2 mg/kg): 1.5 h
- Vd [2, 6]: 2.2 L/kg
- Rat (% TO) 15 min [3]: 32 % TO
- Rat (% TO) 60 min [3]: 46 % TO
- Human (% TO) 15 min [4]: 16 % TO
- Human (% TO) 60 min [4]: 23 % TO
